Data: patent US20060100431A1, “Biologically active compounds” (Amura Therapeutics Limited, priority 2002, published 2006)

Each compound was assayed against T1, CPB2.8ΔCTE (Leishmania mexicana, UniProt P36400) (assay: Leishmania mexicana cysteine protease B (CPB) peptidase activity assay (Ki)). Conditions: Ki, inhibitors of Leismania mexicana CPB protease.
T1 construct: Wild-type recombinant CPB without the C-terminal extention (i.e. CPB2.8ΔCTE); Dr. Jeremy Mottram (Wellcome Centre for Molecular Parasitology, University of Glasgow)
T1 sequence (P36400 126-343, stated change not applied): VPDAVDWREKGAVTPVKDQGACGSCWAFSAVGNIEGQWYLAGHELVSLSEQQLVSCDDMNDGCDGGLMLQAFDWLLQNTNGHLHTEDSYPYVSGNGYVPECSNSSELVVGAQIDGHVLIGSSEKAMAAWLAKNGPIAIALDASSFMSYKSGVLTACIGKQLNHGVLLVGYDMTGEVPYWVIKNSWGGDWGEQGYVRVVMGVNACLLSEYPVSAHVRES
Type: biochemical
Procedure: Unless otherwise stated, all general chemicals and biochemicals were purchased from either the Sigma Chemical Company, Poole, Dorset, U.K or from Fisher Scientific UK, Loughborough, Leicestershire, U.K. Absorbance assays were carried out in flat-bottomed 96-well plates (Spectra; Greiner Bio-One Ltd., Stonehouse, Gloucestershire, U.K.) using a SpectraMax PLUS384 plate reader (Molecular Devices, Crawley, U.K.). Fluorescence high throughput assays were carried out in either 384-well microtitre plates (Corning Costar 3705 plates, Fisher Scientific) or 96-well ‘U’ bottomed Microfluor W1 microtitre plates (Thermo Labsystems, Ashford, Middlesex, U.K.). Fluorescence assays were monitored using a SpectraMax Gemini fluorescence plate reader (Molecular Devices). For substrates employing either a 7-amino-4-methylcoumarin (AMC) or a 7-amino-4-trifluoromethylcoumarin (AFC) fluorophore, assays were monitored at an excitation wavelength of 365 nm and an emission wavelength of 450 nm and the fluorescence plate reader calibrated with AMC. For substrates employing a 3-amino-benzoyl (Abz) fluorophore, assays were monitored at an excitation wavelength of 310 nm and an emission wavelength of 445 nm; the fluorescence plate reader calibrated with 3-amino-benzamide (Fluka). Unless otherwise indicated, all the peptidase substrates were purchased from Bachem UK, St Helens, Merseyside, UK. Substrates utilizing fluorescence resonance energy transfer methodology (i.e. FRET-based substrates) were synthesized at Incenta Limited using published methods (Atherton & Sheppard, Solid Phase Peptide Synthesis, IRL Press, Oxford, U.K, 1989) and employed Abz (2-aminobenzoyl) as the fluorescence donor and 3-nitro-tyrosine [Tyr(NO2)] as the fluorescence quencher (Meldal, M. and Breddam, K., Anal. Biochem, 195, 141-147, 1991). Hydroxyethylpiperazine ethanesulfonate (HEPES), tris-hydroxylmethyl aminomethane (tris) base, bis-tris-propane and all the biological detergents (e.g. CHAPS, zwittergents, etc.) were purchased from CN Biosciences UK, Beeston, Nottinghamshire, U.K. Glycerol was purchased from Amersham Pharmacia Biotech, Little Chalfont, Buckinghamshire, U.K. Stock solutions of substrate or inhibitor were made up to 10 mM in 100% dimethylsulfoxide (DMSO) (Rathburns, Glasgow, U.K.) and diluted as appropriately required. In all cases the DMSO concentration in the assays was maintained at less than 1% (vol./vol.).
Assay protocols were based on literature precedent (Table 4; Barrett, A. J., Rawlings, N. D. and Woessner, J. F., 1998, Handbook of Proteolytic Enzymes, Academic Press, London and references therein) and modified as required to suit local assay protocols. Enzyme was added as required to initiate the reaction and the activity, as judged by the change in fluorescence upon conversion of substrate to product, was monitored over time. All assays were carried out at 25±1° C.
Wild-type recombinant CPB without the C-terminal extention (i.e. CPB2.8ΔCTE; Sanderson, S. J., et. al., Biochem. J., 347, 383-388, 2000) was obtained from Dr. Jeremy Mottram (Wellcome Centre for Molecular Parasitology, The Anderson College, University of Glasgow, Glasgow, U.K.). Activity assays were carried out in 100 mM sodium acetate; pH 5.5 containing 1 mM EDTA; 200 mM NaCl and 10 mM DTT (Alves, L. C., et. al., Mol. Biochem. Parasitol, 116, 1-9, 2001) using 0.25 nM enzyme. […] The rate of conversion of substrate to product was derived from the slope of the increase in fluorescence monitored continuously over time.
The apparent inhibition constant (Ki) for each compound was determined on the basis that inhibition was reversible and occurred by a pure-competitive mechanism. The Ki values were calculated, from the dependence of enzyme activity as a function of inhibitor concentration, by direct regression analysis (Prism v 3.02) using Equation 2 (Cornish-Bowden, A., 1995.). [formula]
Compound `CC(C)C[C@H](NC(=O)c1ccc(N(C)C)cc1)C(=O)N1CC[C@@H]2[C@H]1C(=O)CN2C(=O)[C@@H](N)CC1CCCCC1` [Example 215, (3aR,6aS)-N-{(1S)-1-[4-((2S)-2-Amino-3-cyclohexyl-propionyl)-6-oxo-hexahydro-pyrrolo[3,2-b]pyrrole-1-carbonyl]-3-methyl-butyl}-4-dimethylamino-benzamide] has a Ki of under 5 µM. Compound `CC(C)C[C@H](NC(=O)c1cccc(CN)c1)C(=O)N1CC[C@@H]2[C@H]1C(=O)CN2C(=O)[C@@H](C)c1ccccc1` [Example 177, (3aR,6aS)-3-Aminomethyl-N-{(1S)-3-methyl-1-[6-oxo-4-((2S)-2-phenyl-propionyl)-hexahydro-pyrrolo[3,2-b]pyrrole-1-carbonyl]-butyl}-benzamide] has a Ki of under 5 µM. For `Cc1ccc(C[C@H](NC(=O)c2ccc(C(C)(C)C)cc2)C(=O)N2CC[C@@H]3[C@H]2C(=O)CN3C(=O)Cc2ccccc2)cc1` [Example 360, (3aR,6aS)-4-tert-Butyl-N-[(1S)-1-(4-methyl-benzyl)-2-oxo-2-(6-oxo-4-phenylacetyl-hexahydro-pyrrolo[3,2-b]pyrrole-1-yl)-ethyl]-benzamide], the Ki was under 5 µM. Compound `CC(C)C[C@H](NC(=O)c1ccc(C(C)(C)C)cc1)C(=O)N1CC[C@@H]2[C@H]1C(=O)CN2S(=O)(=O)c1ccccc1` [Example 119, (3aR,6aS)-N-[(1S)-1-(4-Benzenesulfonyl-6-oxo-hexahydro-pyrrolo[3,2-b]pyrrole-1-carbonyl)-3-methyl-butyl]-4-tert-butyl-benzamide] has a Ki of under 5 µM. With `COC(=O)c1ccc(C(=O)N2CC(=O)[C@@H]3[C@H]2CCN3C(=O)[C@H](CC(C)C)NC(=O)c2ccc(N(C)C)cc2)cc1` [Example 76, (3aS,6aR)-4-{4-[(2S)-2-(4-Dimethylamino-benzoylamino)-4-methyl-pentanoyl]-3-oxo-hexahydro-pyrrolo[3,2-b]pyrrole-1-carbonyl}-benzoic acid methyl ester] the Ki was under 5 µM. Work on `CCCC(C)C(=O)N1CC(=O)[C@@H]2[C@H]1CCN2C(=O)[C@H](CC(C)C)NC(=O)c1ccc(N(C)C)cc1` (stereo partly drawn) [Example 230, (3aR,6aS)-4-Dimethylamino-N-{(1S)-3-methyl-1-[4-(2-methyl-pentanoyl)-6-oxo-hexahydro-pyrrolo[3,2-b]pyrrole-1-carbonyl]-butyl}-benzamide] yielded a Ki of under 5 µM. In the case of `CC(=O)N(C)CC(=O)N1CC(=O)[C@@H]2[C@H]1CCN2C(=O)[C@H](CC(C)C)NC(=O)c1ccc(N(C)C)cc1` [Example 201, (3aR,6aS)-N-((1S)-1-{4-[2-(Acetyl-methyl-amino)-acetyl]-6-oxo-hexahydro-pyrrolo[3,2-b]pyrrole-1-carbonyl}-3-methyl-butyl)-4-dimethylamino-benzamide], the Ki is reported as under 5 µM. `CC(C)C[C@H](NC(=O)c1cccc(CN)c1)C(=O)N1CC[C@@H]2[C@H]1C(=O)CN2C(=O)[C@H](C)c1ccccc1` [Example 176, (3aR,6aS)-3-Aminomethyl-N-{(1S)-3-methyl-1-[6-oxo-4-((2R)-2-phenyl-propionyl)-hexahydro-pyrrolo[3,2-b]pyrrole-1-carbonyl]-butyl}-benzamide] showed a Ki of under 5 µM. With `COc1cc(OC)cc(C(=O)N2CC(=O)[C@@H]3[C@H]2CCN3C(=O)[C@H](CC(C)C)NC(=O)c2ccc(N(C)C)cc2)c1` [Example 112, (3aR,6aS)-N-{(1S)-1-[4-(3,5-Dimethoxy-benzoyl)-6-oxo-hexahydropyrrolo[3,2-b]pyrrole-1-carbonyl]-3-methyl-butyl}-4-dimethylamino-benzamide] the Ki was under 5 µM. With `CC(C)C[C@H](NC(=O)c1ccc(N(C)C)cc1)C(=O)N1CC[C@@H]2[C@H]1C(=O)CN2C(=O)c1ccc(C(C)(C)C)cc1` [Example 75, (3aR,6aS)-N-{(1S)-1-[4-(4-tert-Butyl-benzoyl)-6-oxo-hexahydro-pyrrolo[3,2-b]pyrrole-1-carbonyl]-3-methyl-butyl}-4-dimethylamino-benzamide] the Ki was under 5 µM.
